Source: patent US8779158B2, “Trisubstituted pyrazoles as acetylcholine receptor modulators” (Janssen Pharmaceutica NV, priority 2008, dated 2014)

How the values were obtained:
hα7-wt nAChR = biological target: T1, hα7-wt nAChR (Homo sapiens, UniProt P36544); test: Ca2+ flux imaging (FDSS) (Protocol B), potentiation of the choline response; type: cell-based; details: Ca2+ assay as described in D.1; for EC50: "<5" = activity did not reach a top plateau at maximal concentration; for Emax: read-out: % Efficacy
T1 construct: expressed in transfected cells
T1 sequence (P36544 23-502): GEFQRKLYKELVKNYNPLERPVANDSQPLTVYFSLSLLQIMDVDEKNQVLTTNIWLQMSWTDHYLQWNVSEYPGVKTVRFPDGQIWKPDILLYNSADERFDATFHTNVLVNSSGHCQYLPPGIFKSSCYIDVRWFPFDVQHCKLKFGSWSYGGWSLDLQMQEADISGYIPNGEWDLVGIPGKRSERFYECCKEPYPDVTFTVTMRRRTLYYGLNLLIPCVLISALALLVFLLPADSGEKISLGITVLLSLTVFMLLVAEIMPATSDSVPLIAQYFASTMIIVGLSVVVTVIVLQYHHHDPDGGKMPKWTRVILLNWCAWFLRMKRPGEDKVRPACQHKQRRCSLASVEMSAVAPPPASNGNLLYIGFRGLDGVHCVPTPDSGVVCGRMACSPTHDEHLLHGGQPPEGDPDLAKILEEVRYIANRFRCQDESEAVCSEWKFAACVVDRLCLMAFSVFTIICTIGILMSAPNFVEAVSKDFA
Procedure, shortened: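 Cells expressing hα7-wt nAChR, loaded with fluo-4AM (2 μM final) in HBSS with 10 mM HEPES, 5 mM CaCl2, 0.1% BSA and probenecid; compound (0.01–30 μM) added up to 10 min before 100 μM choline. Peak fluorescence potentiation relative to choline alone (100%); EC50 from sigmoidal curve.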

[1] = biological target: T2, hα7-wt nAChR-expressing GH4C1 cells (Homo sapiens, UniProt P36544); test: Patch-clamp current recording (whole-cell voltage clamp), potentiation of the choline current and PAM type; type: cell-based; parameters: key: Type 0 compounds minimally enhance the effect size of the current elicited by 1 mM choline.; Type 1 compounds enhance the effect size of the current elicited by 1 mM choline but minimally alter the kinetics of the receptor.; Type 2 compounds enhance the effect size of the current elicited by 1 mM choline while reducing the rate and/or the extent of desensitization.; Type 3 compounds enhance the effect size of the current elicited by 1 mM choline. When tested at higher concentrations up to 10 μM they completely inhibit desensitization, in particular a 1 mM choline application of 250 milliseconds.; Type 4 compounds allow for an initial desensitization of the receptor followed by a re-opening of the receptor during agonist application; details: 1 mM choline
T2 construct: expressed in transfected cells
T2 sequence (P36544 23-502): as above
Procedure: The compounds of the present invention are classified as type 1-4, based on qualitative kinetic properties, as determined by whole-cell voltage-clamp recordings. This classification is based on the effect of an α7 PAM compound, as described hereinbefore, on the signal elicited by an agonist application. In particular, said agonist is choline at a concentration of 1 mM. In a preferred experimental setting, said α7 PAM compound and choline are simultaneously applied to the cell, as described hereinafter. Desensitization is defined as the closure of the receptor upon activation during the application of the agonist in whole-cell voltage-clamp electrophysiology measurements seen as the reduction of the […] current after initial activation by the agonist.
The definition of the PAM types 1-4 is described hereinafter: • Type 0 compounds minimally enhance the effect size of the current elicited by 1 mM choline. • Type 1 compounds enhance the effect size of the current elicited by 1 mM choline but minimally alter the kinetics of the receptor. In particular, the rate and the extent of desensitization, elicited by the agonist, is not affected. The compound-modulated response to 1 mM choline, therefore, is a close to linear scaling of the 1 mM choline response in absence of the α7 PAM compound. • Type 2 compounds enhance the effect size of the current elicited by 1 mM choline while reducing the rate and/or the extent of desensitization. • Type 3 compounds enhance the effect size of the current elicited by 1 mM choline. […] At low-potency concentrations of the α7 PAM compound, the agonist-induced activation, which is followed by desensitization, can still be separated from the compound-induced re-opening as an initial inward current-maximum. At higher potency concentrations of the α7 PAM compound, the re-opening occurs faster than the closure due to desensitization so that the initial current-maximum disappears.
A compound was considered to have interesting PAM-like activity when the potentiation of the peak current was at least 200% compared to the control choline response (=100%). Such compounds are classified as belonging to a particular PAM type in the Experimental Part. Compounds not meeting the condition are not classified as belonging to a particular PAM-type.
The compounds also have a potentiating effect on the response to choline when measured by whole-cell patch clamp electrophysiology in GH4C1 cells stably over-expressing the human wild-type α7 receptor.
Patch-Clamp Current Recording
Patch-clamp recording from mammalian cells has provided a powerful means of assessing the function of membrane-bound proteins thought to be subunits of ligand-gated ion channels. Activation of such proteins by endogenous or exogenous ligands cause opening of a pore associated with the receptor through which ions flow down their electrochemical gradient. In the case of the hα7-wt nAChR-expressing GH4C1 recombinant cell line the preferential permeability to calcium of this receptor means that calcium flows into the cell upon activation by ACh, choline and other nicotinic ligands giving rise to a calcium current. Since this receptor rapidly desensitizes in the presence of agonist it is important an application system is used which is capable of very rapid switching of solutions (<100 ms) to prevent partial or full desensitisation of receptor responses coincident with the time of agonist application. Consequently, a second convenient technique to assess the enhancement of nicotinic efficacy is patch-clamp recording from hα7-wt nAChR-expressing GH4C1 cells coupled with a rapid-application system.
• The external recording solution consisted of 152 mM NaCl, 5 mM KCl, 1 mM MgCl2, 1 mM Calcium, 10 mM HEPES; pH 7.3. […]

Row | Compound | EC50 (hα7-wt nAChR) [nM] | melting point [°C] | PAM type [1] | Emax (hα7-wt nAChR) [%]
1 | CN(C)C(=O)CCn1nc(Nc2ccc(F)cc2)cc1-c1ccc2c(c1)OCCO2 [compound 83] | 117 | 141.6 to 143.2 |  | 
2 | COc1ccc(-c2cc(Nc3ccc(F)c(F)c3)nn2CCC(=O)N(C)C)c(Cl)c1 [compound 12] | 661 |  | 0 | 
3 | Cc1cc(-c2cc(Nc3ccc(F)c(C(F)(F)F)c3)nn2C[C@H](C)O)ccn1 [compound 43] | 1450 |  | 1 | 700
4 | CC[C@H](O)Cn1nc(Nc2ccc(F)c(F)c2)cc1-c1cc(C)nc(C)c1 [compound 59] | 617 |  | 1 | 
5 | CCNC(=O)Cn1nc(Nc2cccc(Cl)c2F)cc1-c1ccnc(C)c1 [compound 137] | 631 |  | 2 | 946
6 | COCc1cc(-c2cc(Nc3ccc4c(c3)OC(F)(F)O4)nn2CCC(=O)N(C)C)ccn1 [compound 96] | 182 |  | 3 | 
7 | Cc1cc(-c2cc(Nc3ccc4c(c3)OC(F)(F)O4)nn2CC(=O)NC2CCC2)cc(C)n1 [compound 158] | 363 |  | 1 | 509
8 | CC[C@H](O)Cn1nc(Nc2cccc(Cl)c2)cc1-c1ccnc(C)c1 [compound 185, (alphaS)-3-[(3-chlorophenyl)amino]-alpha-ethyl-5-[2-methyl-4-pyridinyl]-1H-pyrazole-1-ethanol] | 1580 |  | 1 | 
9 | CN(C)C(=O)CCn1nc(Nc2ccc(F)c(F)c2)cc1-c1ccncc1 [compound 21] | 1230 |  | 3 | 
10 | Cc1cc(-c2cc(Nc3ccc(F)c(F)c3)nn2CC(=O)NCC2CC2)cc(C)n1 [compound 57] | 209 |  | 2 | 
11 | CCOC(=O)Cn1nc(Nc2ccc(F)c(F)c2)cc1-c1ccc2c(c1)OCCO2 [compound 10, 3-[(3,4-difluorophenyl)amino]-5-(2,3-dihydro-1,4-benzodioxin-6-yl)-1H-pyrazole-1-acetic acid ethyl ester] | 245 |  | 2 | 
12 | CC[C@H](O)Cn1nc(Nc2cccc(Cl)c2F)cc1-c1ccnc(C)c1 [compound 118] | 1170 |  | 0 | 633
13 | CCNC(=O)Cn1nc(Nc2ccc3c(c2)OC(F)(F)O3)cc1-c1cc(C)nc(C)c1 [compound 153] | 417 |  | 2 | 737
14 | COc1cc(Nc2cc(-c3ccnc(C)c3)n(CC(=O)NC3CC3)n2)cc(C(F)(F)F)c1 [compound 104] | 2690 |  | 3 | 
15 | Cc1cc(-c2cc(Nc3cccc(Cl)c3F)nn2CC(=O)NCC2CC2)ccn1 [compound 170] | 186 |  | 2 | 783
16 | CCNC(=O)Cn1nc(Nc2ccc3c(c2)OC(F)(F)O3)cc1-c1ccncc1 [compound 87] | 871 |  | 3 | 
17 | Cc1cc(-c2cc(Nc3cccc(OC(F)(F)F)c3)nn2CCC(=O)N(C)C)cc(C)n1 [compound 165] | 363 |  | 1 | 738
18 | COCc1cc(-c2cc(Nc3ccc(F)c(F)c3)nn2CCC(=O)N(C)C)ccn1 [compound 70] | 1350 |  | 3 | 
19 | COc1cc(Cl)cc(Nc2cc(-c3ccnc(C)c3)n(CC(=O)NCC3CC3)n2)c1 [compound 132] | 794 |  | 2 | 
20 | CCNC(=O)Cn1nc(Nc2cc(F)c(F)c(F)c2)cc1-c1ccnc(C)c1 [compound 128] | 851 |  | 2 | 643

Row | Compound | EC50 (hα7-wt nAChR) [nM] | melting point [°C] | PAM type [1] | Emax (hα7-wt nAChR) [%]
21 | CNC(=O)Cn1nc(Nc2cccc(Cl)c2)cc1-c1cc(C)nc(C)c1 [compound 54] | 977 |  | 2 | 
22 | Cc1cc(-c2cc(Nc3cc(F)c(F)c(F)c3)nn2CC(=O)NCC2CC2)ccn1 [compound 168] | 263 |  | 2 | 778
23 | CNC(=O)Cn1nc(Nc2ccc3c(c2)OC(F)(F)O3)cc1-c1ccnc(COC)c1 [compound 112] | 1510 |  | 4 | 
24 | Cc1ccc(-c2cc(Nc3ccc(F)c(C(F)(F)F)c3)nn2CCC(=O)N(C)C)cn1 [compound 28] | 776 |  | 4 | 
25 | Cc1cc(-c2cc(Nc3ccc4c(c3)OC(F)(F)O4)nn2CC(=O)NCC2CC2)ccn1 [compound 95] | 234 |  | 2 | 
26 | CNC(=O)Cn1nc(Nc2ccc(F)c(F)c2F)cc1-c1ccnc(C)c1 [compound 107] | 1860 |  | 2 | 907
27 | CC[C@H](O)Cn1nc(Nc2ccc(F)c(F)c2)cc1-c1ccnc(COC)c1 [compound 6, (alphaS)-3-[(3,4-difluorophenyl)amino]-alpha-ethyl-5-[2-(methoxymethyl)-4-pyridinyl]-1H-pyrazole-1-ethanol] | 1150 |  | 2 | 
28 | CCNC(=O)Cn1nc(Nc2cccc(Cl)c2)cc1-c1ccnc(C)c1 [compound 111] | 1700 |  | 2 | 
29 | CNC(=O)Cn1nc(Nc2cc(F)c(F)c(F)c2)cc1-c1ccc2c(c1)OCCO2 [compound 74] | 251 |  | 2 | 
30 | CC[C@H](O)Cn1nc(Nc2cc(OC)cc(C(F)(F)F)c2)cc1-c1ccnc(C)c1C [compound 53] | 1070 |  | 0 | 482
31 | CNC(=O)Cn1nc(Nc2cccc(OC(F)(F)F)c2)cc1-c1ccnc(C)c1 [compound 35] | 2450 |  | 2 | 
32 | CC[C@H](O)Cn1nc(Nc2cc(OC)cc(C(F)(F)F)c2)cc1-c1ccnc(C)c1 [compound 183] | 794 |  | 0 | 
33 | CCNc1cc(-c2cc(Nc3ccc(F)c(C(F)(F)F)c3)nn2C[C@@H](O)CC)cc(C)n1 [compound 68] | 724 |  | 0 | 
34 | COCc1cc(-c2cc(Nc3cccc(Cl)c3)nn2CCC(=O)N(C)C)ccn1 [compound 149] | 437 |  | 4 | 
35 | Cc1ccnc(-c2cc(Nc3ccc(F)c(F)c3)nn2CCC(=O)N(C)C)c1 [compound 22] | 2450 |  | 2 | 
36 | Cc1cc(-c2cc(Nc3ccc(F)c(F)c3F)nn2CCC(=O)N(C)C)ccn1 [compound 166] | 295 |  | 2 | 856
37 | CNC(=O)Cn1nc(Nc2cccc(C(F)(F)F)c2)cc1-c1ccnc(C)c1 [compound 32] | 4270 |  | 2 | 
38 | Cc1cnccc1-c1cc(Nc2cc(F)cc(C(F)(F)F)c2)nn1CCC(=O)N(C)C [compound 9, 3-[[3-fluoro-5-(trifluoromethyl)phenyl]amino]-N,N-dimethyl-5-(3-methyl-4-pyridinyl)-1H-pyrazole-1-propanamide] | 1020 |  | 4 | 
39 | CC[C@H](O)Cn1nc(Nc2ccc(F)c(F)c2)cc1-c1ccnc(C)c1 [compound 45] | 1230 |  | 1 | 800
40 | Cc1cc(-c2cc(Nc3ccc4c(c3)OC(F)(F)O4)nn2CCC(=O)N(C)C)cc(C)n1 [compound 157] | 363 |  | 2 | 503
